{
  "source": "patent US12134651B2",
  "about": "“Anti-Ryk antibodies and methods of using the same” (The Regents of the University of California, priority 2016, dated 2024)",
  "tested_on": "E16.5 cortical neurons",
  "assay": "Protection of cortical neurons from axonal degeneration induced by aPKC PS",
  "format": "cell-based, mouse",
  "details": "10 μM taxol 2 h prior to and during 2 h treatment of 7 μM aPKC PS",
  "experimental": "Cerebral cortical cell culture—E16.5 mouse pregnant females were sacrificed by CO2 asphyxia and cervical dislocation. Embryos were removed from uterine horns. Skin, skull, and meninges were removed from embryo heads. The cortex was dissected in L-15 medium (Sigma), digested with 0.025% trypsin/0.221 mM EDTA (Mediatech) for 20 min followed by incubation in 5% horse serum prepared in L-15 medium for 5 min to inhibit trypsin. […]\nImage acquisition and analysis—All images were acquired on an inverted Zeiss LSM510 confocal microscope with LSM acquisition software (Carl Zeiss Microscopy). For quantification of P-PKCζ T410 immunoreactivity in cell cultures, exposure time was adjusted to be under the saturation level for the highest immunofluorescence signal and was conserved between the different samples. Mean immunofluorescence intensity level in neuronal cell bodies was measured using FiJi-ImageJ software (NIH). All quantifications were performed on 10 non-overlapping fields in cell cultures from at least three independent experiments and on four non-consecutive sections from at least three animals for in vivo experiments. […]",
  "note": "“Also recorded” adds a separate entry of the source.",
  "data": [
    {"smiles": "CC(=O)O[C@H]1C(=O)[C@@]2(C)[C@H]([C@H](OC(=O)c3ccccc3)[C@]3(O)C[C@H](OC(=O)[C@H](O)[C@@H](NC(=O)c4ccccc4)c4ccccc4)C(C)=C1C3(C)C)[C@]1(OC(C)=O)CO[C@@H]1C[C@@H]2O", "note": "[taxol, reference compound]", "values": [
      {"measurement": "axon degeneration induced by aPKC inhibition", "result": "reduced; also recorded: partially prevented"}
    ]}
  ]
}
